Data taken from paper PMC11855827, “High-Throughput Screening of Five Compound Libraries for Anthelmintic Activity and Toxicity Leads to the Discovery of Two Flavonoid Compounds” (International Journal of Molecular Sciences, 2025).
Like-named read-outs stand apart in the source and are kept apart here. *1 amine or outer side, *2 acyl side, *3 side chain or, on linkers, in order; H or OH if unused. Where a SMILES comes first, the peptide text is derived from it. Bridges are numbered along the chain shown (N, C = ends). [ ]: non-standard residue; d: D form. The star is where a group is joined. Orn(4R-OH,5R-OH) = O=C([C@H](C[C@@H](O)[C@@H](O)N[*:3])N[*:1])[*:2]; Tetradecanoyl(10R,12S-Me2) = CC[C@H](C)C[C@H](C)CCCCCCCCC(=O)*; hTyr(3S-OH,4S-OH) = N[C@H](C(=O)O)[C@H](O)[C@@H](O)c1ccc(O)cc1; Gln(3R-OH) = NC(=O)C[C@@H](O)[C@H](N)C(=O)O; Pro(3S-OH) = O=C(O)[C@H]1NCC[C@@H]1O; Hyp = O=C(O)[C@@H]1C[C@@H](O)CN1

Test system: C. elegans
[1] = Table S2, C. elegans SS assay, 110 μM, 24 h, averages of 4 data points
[2] = Table S2, C. elegans SS assay, 110 μM, 0 h, averages of 4 data points

Compound | Percentage of motility inhibition 24 h [1] | Percentage of motility inhibition 0 h [2] | Percentage of motility inhibition 0 h (110 µM) | Percentage of motility inhibition 24 h (110 µM)
COc1cc2c(cc1OC)-c1cc3ccc(OC)c(OC)c3c[n+]1CC2.[Cl-] [Palmatine (chloride)] | 0% | – | – | –
COc1cc2c(cc1OC)-c1cc3ccc(OC)c(OC)c3c[n+]1CC2.[OH-] [Palmatine (hydroxide)] | 0% | 1% | – | –
COc1cc2c(cc1OC)-c1cc3ccc(OC)c(O)c3c[n+]1CC2.[OH-] [Palmaturbine (hydroxide)] | 8% | 0% | – | –
O=c1c(O[C@@H]2O[C@H](CO)[C@H](O)[C@H](O)[C@H]2O[C@@H]2O[C@H](CO)[C@@H](O)[C@H](O)[C@H]2O)c(-c2ccc(O)cc2)oc2cc(O)cc(O)c12 [Panasenoside] | 31% | 6% | – | –
O=C(CC(O)(CC(=O)OCc1ccc(OC2OC(CO)C(O)C(O)C2O)cc1)C(=O)OCc1ccc(OC2OC(CO)C(O)C(O)C2O)cc1)OCc1ccc(OC2OC(CO)C(O)C(O)C2O)cc1 (stereo not shown) [Parishin] | 12% | 0% | – | –
NC[C@@H]1O[C@H](O[C@H]2[C@@H](O)[C@H](O[C@@H]3[C@@H](O)[C@H](N)C[C@H](N)[C@H]3O[C@H]3O[C@H](CO)[C@@H](O)[C@H](O)[C@H]3N)O[C@@H]2CO)[C@H](N)[C@@H](O)[C@@H]1O.O=S(=O)(O)O [Paromomycin (sulfate)] | 2% | 14% | – | –
C[C@H]1CC[C@@]2(O)C(C)(C)[C@@H]3CC[C@@]2(C)[C@H]1C3 [Patchouli alcohol] | 35% | 24% | – | –
CS(=O)(=O)O.C[C@H]1COc2c(C3(N)CC3)c(F)cc3c(=O)c(C(=O)O)cn1c23 [Pazufloxacin (mesylate)] | 2% | 28% | – | –
CCn1cc(C(=O)O)c(=O)c2cc(F)c(N3CCN(C)CC3)cc21.CS(=O)(=O)O [Pefloxacin (mesylate)] | 8% | 9% | – | –
C[C@H]1CC[C@@H]2N(C1)C[C@H]1[C@@H]3C[C@H]4[C@@H](C[C@H](O)[C@H]5C[C@@H](O)CC[C@@]54C)[C@@H]3CC[C@@H]1[C@]2(C)O [Peimine] | 0% | 7% | – | –
C[C@H]1CCC2N(C1)C[C@H]1C3CC4[C@@H](CC(=O)C5C[C@@H](O)CC[C@@]54C)C3CCC1[C@]2(C)O (stereo partly shown) [Peiminine] | 19% | 0% | – | –
CC1=C2C[C@H]3[C@@H](CC(=O)[C@H]4C[C@@H](O)CC[C@@]43C)[C@@H]2CC[C@]12O[C@@H]1C[C@H](C)CN[C@H]1[C@H]2C [Peimisine] | 0% | 0% | – | –
CC1(C)S[C@@H]2[C@H](NC(=O)Cc3ccccc3)C(=O)N2[C@H]1C(=O)[O-].[K+] [Penicillin G (potassium)] | 8% | 14% | – | –
CC1(C)S[C@@H]2[C@H](NC(=O)COc3ccccc3)C(=O)N2[C@H]1C(=O)[O-].[K+] [Penicillin V (Potassium)] | 24% | 23% | – | –
N=C(N)c1ccc(OCCCCCOc2ccc(C(=N)N)cc2)cc1.O=S(=O)(O)CCO.O=S(=O)(O)CCO [Pentamidine (isethionate)] | 0% | 0% | – | –
CCC(CC)[C@H](NC(C)=O)[C@@H]1[C@H](O)[C@@H](C(=O)O)C[C@H]1NC(=N)N.O.O.O [Peramivir (trihydrate)] | 0% | 2% | – | –
C=C(C)[C@@H]1CC=C(CO)CC1 [Perillyl alcohol] | 6% | 0% | – | –
COc1cc2c(cc1O)C[C@H]1c3cc(O)c(OC)cc3CC[N+]1(C)C2.[Cl-] (stereo partly shown) [Phellodendrine (chloride)] | 7% | 25% | – | –
CC(C)C[C@H](NP(=O)([O-])O[C@H]1O[C@H](C)[C@@H](O)[C@H](O)[C@@H]1O)C(=O)N[C@@H](Cc1c[nH]c2ccccc12)C(=O)[O-].[Na+].[Na+] [Phosphoramidon (Disodium)] | 7% | 19% | – | –
CNC(=O)Oc1ccc2c(c1)[C@]1(C)CCN(C)[C@@H]1N2C.O=C(O)c1ccccc1O [Physostigmine (salicylate)] | – | – | 0% | 0%

Compound | Percentage of motility inhibition 24 h [1] | Percentage of motility inhibition 0 h [2] | Percentage of motility inhibition 0 h (110 µM) | Percentage of motility inhibition 24 h (110 µM)
COC(=O)[C@@]1(C)CC[C@]2(C(=O)O)CC[C@]3(C)C(=CC[C@@H]4[C@@]5(C)C[C@H](O)[C@H](O)[C@@](C)(CO)[C@@H]5CC[C@]43C)[C@@H]2C1 [Phytolaccagenin] | 15% | 5% | – | –
CC(C)C1=CC(=O)[C@@](C)([C@H]2[C@H](O)C[C@@]3(C)[C@@H]4CC=C5[C@@H](CC[C@@H](O[C@@H]6OC[C@@H](O)[C@H](O)[C@H]6O[C@@H]6O[C@@H](C)[C@H](O)[C@@H](O)[C@H]6O)C5(C)C)[C@]4(C)C(=O)C[C@]23C)O1 [Picfeltarraenin IA] | 2% | 5% | – | –
CC(C)C1=CC(=O)C(C)(C2C(O)CC3(C)C4CC=C5C(CCC(OC6OC(CO)C(O)C(O)C6OC6OC(C)C(O)C(O)C6O)C5(C)C)C4(C)C(=O)CC23C)O1 (stereo not shown) [Picfeltarraenin IB] | 34% | 0% | – | –
O=C1C[C@@H](c2ccccc2)Oc2cc(O[C@@H]3O[C@H](CO)[C@@H](O)[C@H](O)[C@H]3O)cc(O)c21 [Pinocembrin‐7‐O‐β‐D‐glucopyranoside] | 17% | 0% | – | –
CCN1CCN(C(=O)N[C@@H](C(=O)N[C@@H]2C(=O)N3[C@@H]2SC(C)(C)[C@@H]3C(=O)[O-])c2ccccc2)C(=O)C1=O.[Na+] [Piperacillin (sodium)] | 2% | 31% | – | –
C1CNCCN1.O.O.O.O.O.O [Piperazine (hexahydrate)] | 12% | 58% | – | –
C1CNCCN1.O=C(O)CC(O)C(=O)O (stereo not shown) [Piperazine (malate)] | 14% | 26% | – | –
C1CNCCN1.O=C(O)CCCCC(=O)O [Piperazine adipate] | 13% | 10% | – | –
COc1cc(/C=C/C(=O)N2CCC=CC2=O)cc(OC)c1OC [Piperlongumine] | 0% | 0% | – | –
Cc1cc(CC(C)CC(C)(C)C)n(O)c(=O)c1.NCCO (stereo not shown) [Piroctone olamine] | 7% | 5% | – | –
CC(C)(C)C(=O)OCOC(=O)[C@@H]1N2C(=O)[C@@H](N=CN3CCCCCC3)[C@H]2SC1(C)C.Cl [Pivmecillinam (hydrochloride)] | 0% | 12% | – | –
CC1(C)CC[C@]2(C(=O)O)[C@H](O)C[C@]3(C)C(=CC[C@@H]4[C@@]5(C)C[C@H](O)[C@H](O)C(CO)(CO)[C@@H]5CC[C@]43C)[C@@H]2C1 [Platicodigenin] | 0% | 0% | – | –
C[C@@H]1O[C@@H](O[C@H]2[C@H](OC(=O)[C@]34CCC(C)(C)C[C@H]3C3=CC[C@@H]5[C@@]6(C)C[C@H](O)[C@H](O[C@@H]7O[C@H](CO)[C@@H](O)[C@H](O)[C@H]7O)[C@](CO)(C(=O)O)[C@@H]6CC[C@@]5(C)[C@]3(C)C[C@H]4O)OC[C@H](O)[C@@H]2O)[C@H](O)[C@H](O)[C@H]1O[C@@H]1OC[C@@H](O)[C@H](O[C@@H]2OC[C@](O)(CO)[C@H]2O)[C@H]1O [Platyconic acid A] | 5% | 0% | – | –
CC[C@H](C)C[C@H](C)CCCCCCCCC(=O)N[C@H]1C[C@@H](O)[C@@H](O)NC(=O)[C@@H]2[C@@H](O)CCN2C(=O)[C@H]([C@H](O)CC(N)=O)NC(=O)[C@H]([C@H](O)[C@@H](O)c2ccc(O)cc2)NC(=O)[C@@H]2C[C@@H](O)CN2C(=O)[C@H]([C@@H](C)O)NC1=O [Pneumocandin B0] ({Tetradecanoyl(10R,12S-Me2)}-[Orn(4R-OH,5R-OH)]T[Hyp][hTyr(3S-OH,4S-OH)][Gln(3R-OH)][Pro(3S-OH)]; lactam 1-C) | 0% | 0% | – | –
COc1ccc(OCc2ccc(COc3c(Cl)cccc3Cl)cc2)c(Cl)c1 [Pocapavir] | 18% | 29% | – | –
CC1(C)CCC2(C(=O)O)C(O)CC3(C)C(=CCC4C5(C)CC(O)C(O)C(C)(CO)C5CCC43C)C2C1 (stereo not shown) [Polygalacic acid] | 0% | 3% | – | –
C[C@@H]1O[C@@H](O[C@H]2[C@H](OC(=O)[C@]34CCC(C)(C)C[C@H]3C3=CC[C@@H]5[C@@]6(C)C[C@H](O)[C@H](O[C@@H]7O[C@H](CO)[C@@H](O)[C@H](O)[C@H]7O)[C@@](C)(CO)[C@@H]6CC[C@@]5(C)[C@]3(C)CC4)O[C@H](CO)[C@@H](O)[C@@H]2O)[C@H](O)[C@H](O)[C@H]1O[C@@H]1OC[C@@H](O)[C@H](O)[C@H]1O [Polygalasaponin F] | 0% | 5% | – | –
CC1(C)CC[C@]2(C(=O)O)CCC3=C(CC[C@@H]4[C@@]5(C)C[C@H](O)[C@H](O)[C@@](C)(C(=O)O)[C@@H]5CC[C@@]34C)[C@@H]2C1 [Polygalic acid] | 1% | 0% | – | –
C=C(CC[C@@H](C(=O)O)[C@H]1[C@H](O)C[C@@]2(C)C3=CC[C@H]4C(C)(C)C(=O)CC[C@]4(C)C3=CC[C@]12C)C(C)C [Polyporenic acid C] | 12% | 30% | – | –
CC(=O)[C@H]1CC[C@H]2[C@@H]3CC=C4C[C@@H](OS(=O)(=O)[O-])CC[C@]4(C)[C@H]3CC[C@]12C.[Na+] [Pregnenolone monosulfate (sodium)] | 0% | 0% | – | –
